Data as given in US20220395464A1, “ORALLY ADMINISTERED SOLID DOSAGE FORM DRUG” (ASCENTAWITS PHARMACEUTICALS, LTD., priority 2019, published 2022).
Where “and” joins values, the source holds several entries; their conditions need not be identical. Identical values can stand only once.

Key:
[1] = Stability in hepatomicrosome with NADPH (LC-MS/MS); type: in vitro ADME, human; details: for % Remaining: human hepatomicrosome 0.5 mg/ml, NADPH 2 mM, 37° C., Sample 1, Sample 2
Experimental: The compounds, hepatomicrosome and reduced coenzyme NADPH were mixed together. Besides, a final concentration of the hepatomicrosome was 0.5 mg/ml, and human, male and mixed types of the hepatomicrosome were purchased. A final concentration of the NADPH was 2 mM. Next, the preceding mixtures were incubated in buffer (100 mM KH2PO4—K2HPO4) at 37° C. for 0, 5, 15, 30, 45, and 60 minutes, respectively. At the appointed incubation time, the reaction was terminated by the addition of an internal standard solution. Finally, the samples were centrifuged and the supernatant was taken for detection by LC-MS/MS.
Through mass spectrometry analysis, a concentration of the compounds in each sample was expressed by a peak-area ratio (a ratio of the peak-area of the compound to a peak-area of the internal standard). Then, each remaining percentage of the compounds (% Remaining) at each appointed incubation time was calculated with a reference that 0 minute at each concentration of the compounds. In logarithm of the remaining percentage was fitted linearly with the appointed incubation times, and a half-life and an intrinsic clearance were calculated according to the following formulas.
The remaining percentage (% Remaining)=(a peak area ratio at a certain appointed time (PARappointed time)/a peak area ratio at 0 minute (PAR0-mm)×100 (PAR: peak area ratio)
The elimination rate constant (k)=a negative of a slope (-gradient)
In vitro clearance (CLint, in vitro) (ml/min/mg)=k/c (c: a concentration of hepatomicrosome in the incubation system)

[2] = Pharmacokinetics after single intravenous drip infusion, plasma LC-MS/MS; type: in vivo, Philippine macaques; details: individual animals 101, 102, 103; for Plasma-drug concentration: AST-3424-D6 intravenous drip infusion 0.42 mg/kg
Experimental: AST-3424 and AST-3424-D6 (i.e. the compound of formula I) were administered to Philippine macaques by intravenous drip infusion, and blood samples were collected at different appointed times. LC-MS/MS was used to determine concentrations of the test substances in plasma of the Philippine macaques after administration, and relevant pharmacokinetic parameters were calculated.
Preparation method: 0.447 ml of AST-3424 (0.2 mg/ml) and 0.481 ml of AST-3424-D6 (0.2 mg/ml) were added into 104.272 ml of the dissolvent, respectively, and mixed for 5 minutes to obtain colorless and clarified solutions with pH 7.0.
The four male Philippine macaques were purchased from Guangxi Xiongsen Primate Development Experiment Co., Ltd. All Philippine macaques were healthy with qualified medical examination and no abnormality. Three of animals were used for the experiment, and one of them was used to prepare blank plasma.
About 0.8 ml of blood samples were collected through femoral vein and anticoagulated with heparin sodium. Appointed times of blood collection were before administration, 0.17, 0.25, 0.5, 0.75, 1, 2, and 4 hours after administration.
The blood samples were placed on ice after collection. Next, plasma samples were separated by centrifugation, and centrifugation conditions were 3500 rpm for 10 minutes at 4° C. Then, the collected plasma samples were stored at −80° C. until analysis. The plasma samples were analyzed by LC-MS/MS by an analysis department of an experimental institution. Besides, Lower limit of quantifications (LLOQ) of AST-3424 and AST-3424-D6 detection were 1 ng/ml. The accuracy of analysis results of an accompanying standard curve and a quality control samples all met the relevant requirements of biological analysis (the accuracy of the quality control samples exceeding 66.7% was between 85˜115%) in a process of the sample detection.
According to average blood concentration data of each group at each appointed time, the pharmacokinetic parameters of the compounds were respectively computed by a pharmacokinetic computing software, a non-compartmental model. In addition, the pharmacokinetic parameters were AUC0-t, AUC0-∞, MRT0-∞, Cmax, Tmax, t1/2, etc. In the case of the concentrations of the samples whose concentration being lower than a lower limit of quantification, the following schemes were used to compute the pharmacokinetic parameters. The samples sampled before reaching Cmax shall be computed as zero value, while the samples sampled after reaching Cmax shall be computed as non-quantifiable (marked as “BLQ”).
After a single intravenous infusion of the compounds AST-3424 and AST-3424-D6 was administered to the Philippine macaques, the whole blood samples of the corresponding animals were collected at the appointed times. Next, the whole blood samples were processed and biologically analyzed to obtain concentrations of the compounds in the plasma at the different appointed times. Results of the assay were listed in Table 14 below, and corresponding means of the plasma-drug concentration-time curves are shown in FIG. 3.
According to the plasma-drug concentration data of each drug group, the pharmacokinetic parameters of each compound group were computed using the non-compartmental model of the pharmacokinetic computing software. The pharmacokinetic

[3] = AST-3424-D6 single intravenous infusion, Table 15 heading 0.58 mg/kg (text: 0.42 mg/kg), plasma

Stability parameter k (elimination rate constant) ([1]; human hepatomicrosome): 0.0349 min⁻¹
% Remaining ([1]; 0 minutes): 101.60% and 98.40%
% Remaining ([1]; 5 minutes): 85.07% and 87.20%
% Remaining ([1]; 15 minutes): 62.93% and 60.00%
% Remaining ([1]; 30 minutes): 36.80% and 34.93%
% Remaining ([1]; 45 minutes): 21.17% and 21.07%
% Remaining ([1]; 60 minutes): 13.52% and 12.75%
% Remaining, Average ([1]; human hepatomicrosome, 0 minutes): 100.00%
% Remaining, Average ([1]; human hepatomicrosome, 5 minutes): 86.13%
% Remaining, Average ([1]; human hepatomicrosome, 15 minutes): 63.47%
% Remaining, Average ([1]; human hepatomicrosome, 30 minutes): 35.87%
% Remaining, Average ([1]; human hepatomicrosome, 45 minutes): 21.12%
% Remaining, Average ([1]; human hepatomicrosome, 60 minutes): 13.13%
half-life ([1]; male, liver microsomes (hepatomicrosome), human hepatomicrosome, read-out: Stability parameter (t1/2)): 19.9 min
Structure (SMILES): [2H]C([2H])([2H])N(C(=O)c1cccc(Oc2cc([C@H](C)OP(=O)(N3CC3)N3CC3)ccc2[N+](=O)[O-])c1)C([2H])([2H])[2H] [AST-3424-D6]
Hepatomicrosome stability compared with AST-3424, in words ([1]; human hepatomicrosome, FIG. 2 and Table 13): more stable
Remaining percentage higher than that of AST-3424 ([1]; human hepatomicrosome, at the same time period): at least 10%
Plasma-drug concentration ([2]; 0.17 hr): 573.76 ng/mL and 478.95 ng/mL
Plasma-drug concentration ([2]; 0.25 hr): 528.54 ng/mL and 508.71 ng/mL
Plasma-drug concentration ([2]; 0.5 hr): 533.71 ng/mL and 487.88 ng/mL
Plasma-drug concentration ([2]; 0.75 hr): 122.04 ng/mL and 91.24 ng/mL
Plasma-drug concentration ([2]; 1 hr): 36.24 ng/mL and 24.30 ng/mL
Plasma-drug concentration ([2]; 2 hr, LLOQ 1 ng/ml): BLQ
Plasma-drug concentration ([2]; 4 hr, LLOQ 1 ng/ml): BLQ
AUC(0−t) [2, 3]: 327.39 ng·h/mL and 291.62 ng·h/mL
AUC(0−∞) [2, 3]: 295.67 ng·h/mL
Cl [2, 3]: 1420.48 mL/h/kg
Cmax [2, 3]: 573.76 ng/mL and 508.71 ng/mL
T1/2 [2, 3]: 7.2 min
Tmax [2, 3]: 30 min and 10.2 min and 15 min
Vss [2, 3]: 207.06 mL/kg
